Test results reported in US9896441B2 (Lycera Corporation, priority 2014, dated 2018).

Key:
[1] = molecular target: T1, RORγ-LBD (Homo sapiens, UniProt P51449); test: RORγ-Ligand Binding Domain (LBD) TR-FRET Assay; type: biochemical; details: for TR-FRET Assay Max Response: maximum response;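 as to TR-FRET Assay Max Response: 665/615 nm signal ratio set to 100 without ursolic acid or test compound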
T1 construct: made in house; host or cells: SF9 cells (baculovirus); used as diluted lysate
T1 sequence (P51449 269-508 limits assumed): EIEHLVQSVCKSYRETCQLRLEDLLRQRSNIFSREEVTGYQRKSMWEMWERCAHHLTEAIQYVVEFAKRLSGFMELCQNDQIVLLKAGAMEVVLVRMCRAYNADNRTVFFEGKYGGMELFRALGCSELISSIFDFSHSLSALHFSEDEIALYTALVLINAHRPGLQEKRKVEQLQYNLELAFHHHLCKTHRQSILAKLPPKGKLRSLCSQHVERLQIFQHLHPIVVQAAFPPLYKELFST
How it was run: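 TR-FRET read-out using a biotin-tagged SRC1 coactivator LXXLL peptide (200 nM final), with the antagonist ursolic acid present at 2 μM final. Receptor is His-tagged LBD expressed in SF9 cells, ~3 nM final in pH 7.0 Tris/KCl/EDTA/DTT/BSA buffer; compounds in 1% DMSO final.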

[2] = molecular target: T2, Gal4-RORγ-LBD (Homo sapiens, UniProt P51449); test: Gal4-RORγ Luciferase Reporter Assay in HEK-293T Cells; type: cell-based; details: HEK-293 cells, luciferase reporter; for Gal4-RORγ Assay Max Response: maximum response
T2 construct: expressed in transfected cells
T2 sequence (P51449 269-508 limits assumed): T1 sequence (P51449 269-508 limits assumed)
How it was run: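 Max Response was taken as the upper plateau of a 4-parameter logistic fit of luciferase signal, normalized to 100 for wells without ursolic acid or compound. Transiently Gal4-RORγ-LBD/Gal4-luc transfected HEK-293 cells carrying […] ursolic acid were incubated with test compounds (0.2% DMSO) overnight at 37 °C and read with One-Glo.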

EC50 ([1]; RORγ-LBD TR-FRET) [nM] | EC50 ([2]; with ursolic acid) [nM] | EC50 ([1]; RORγ-LBD TR-FRET assay) [nM] | EC50 ([2]; in presence of ursolic acid) [nM] | Compound | TR-FRET Assay Max Response ([1]; RORγ-LBD TR-FRET assay) | Gal4-RORγ Assay Max Response ([2]; in presence of ursolic acid)
< 500 | 500 to 5000 |  |  | COC(=O)CC[C@H]1CN(S(=O)(=O)c2cccc(OC(F)(F)F)c2)c2cc(/C=C(\C)c3c(F)cccc3Cl)ccc2O1 [Example 86T, (S,E)-methyl 3-(6-(2-(2-chloro-6-fluorophenyl)prop-1-en-1-yl)-4-((3-(trifluoromethoxy)phenyl)-sulfonyl)-3,4-dihydro-2H-benzo[b][1,4]oxazin-2-yl)propanoate] |  | 
< 500 | < 500 |  |  | COc1cccc(C(F)(F)F)c1/C=C/c1ccc2c(c1)N(S(=O)(=O)c1cccc(C(F)(F)F)c1)C[C@H](CCC(=O)O)O2 [Example 89ER, (S,E)-3-(6-(2-methoxy-6-(trifluoromethyl)styryl)-4-((3-(trifluoromethyl)phenyl)-sulfonyl)-3,4-dihydro-2H-benzo[b][1,4]oxazin-2-yl)propanoic acid] |  | 
< 500 | 500 to 5000 |  |  | O=C(O)CC[C@H]1CN(S(=O)(=O)c2cccc(C(F)(F)F)c2)c2cc(/C=C3\CCOc4ccccc43)ccc2O1 [Example 38B, (S,E)-3-(6-(chroman-4-ylidenemethyl)-4-((3-(trifluoromethyl)-phenyl)sulfonyl)-3,4-dihydro-2H-benzo[b][1,4]oxazin-2-yl)propanoic acid] |  | 
< 500 | 500 to 5000 |  |  | COC(=O)CC[C@H]1CN(S(=O)(=O)c2cccc(C(F)(F)F)c2C)c2cc(/C=C(\C)c3c(F)cccc3Cl)ccc2O1 [Example 86AN, (S,E)-methyl 3-(6-(2-(2-chloro-6-fluorophenyl)prop-1-en-1-yl)-4-((2-methyl-3-(trifluoromethyl)-phenyl)sulfonyl)-3,4-dihydro-2H-benzo[b][1,4]oxazin-2-yl)propanoate] |  | 
 |  | < 500 | < 500 | C/C(=C\c1ccc2c(c1)N(S(=O)(=O)c1cccc(C(F)(F)F)c1)C[C@H](CC(C)(C)O)O2)c1c(F)cccc1Cl [Example 121A, (S,E)-1-(6-(2-(2-chloro-6-fluorophenyl)prop-1-en-1-yl)-4-((3-(trifluoromethyl)-phenyl)sulfonyl)-3,4-dihydro-2H-benzo[b][1,4]oxazin-2-yl)-2-methylpropan-2-ol] | *** (a value in the range of greater than 150 to 200) | ** (a value in the range of greater than 90 to 150)
< 500 | < 500 |  |  | O=C(O)CC[C@H]1CN(S(=O)(=O)c2cccc(C(F)(F)F)c2)c2cc(/C=C/c3ncccc3C(F)(F)F)ccc2O1 [Example 89BI, (S,E)-3-(4-((3-(trifluoromethyl)phenyl)sulfonyl)-6-(2-(3-(trifluoromethyl)pyridin-2-yl)vinyl)-3,4-dihydro-2H-benzo[b][1,4]oxazin-2-yl)propanoic acid] |  | 

Continued, molecule first:

Compound | EC50 ([1]; RORγ-LBD TR-FRET) [nM] | EC50 ([2]; with ursolic acid) [nM] | EC50 ([1]; RORγ-LBD TR-FRET assay) [nM] | EC50 ([2]; in presence of ursolic acid) [nM] | TR-FRET Assay Max Response ([1]; RORγ-LBD TR-FRET assay) | Gal4-RORγ Assay Max Response ([2]; in presence of ursolic acid)
Cc1nn(C)c2ncc(S(=O)(=O)N3C[C@H](CCC(=O)O)Oc4ccc(/C=C/c5c(F)cccc5Cl)cc43)cc12 [Example 89DX, (S,E)-3-(6-(2-chloro-6-fluorostyryl)-4-((1,3-dimethyl-1H-pyrazolo[3,4-b]pyridin-5-yl)sulfonyl)-3,4-dihydro-2H-benzo[b][1,4]oxazin-2-yl)propanoic acid] | 500 to 5000 | > 10000 |  |  |  | 
COc1cc(S(=O)(=O)N2C[C@H](CC(C)(C)C(=O)O)Cc3ccc(/C=C/c4c(F)cccc4Cl)cc32)ccc1F [Example 154A] |  |  | < 500 | < 500 | ** (a value in the range of greater than 90 to 150) | * (a value in the range of 30 to 90)
COC(=O)CC[C@H]1CN(S(=O)(=O)c2cc(Cl)cnc2OCCO)c2cc(/C=C(\C)c3c(F)cccc3Cl)ccc2O1 [Example 69, Methyl (S,E)-3-(4-((5-chloro-2-(2-hydroxyethoxy)pyridin-3-yl)sulfonyl)-6-(2-(2-chloro-6-fluorophenyl)prop-1-en-1-yl)-3,4-dihydro-2H-benzo[b][1,4]oxazin-2-yl)propanoate] | < 500 | > 10000 |  |  |  | 
CCOc1nn(CC)cc1S(=O)(=O)N1C[C@H](CCC(=O)O)Oc2ccc(/C=C/c3cccc(Cl)n3)cc21 [Example 89AA, (S,E)-3-(6-(2-(6-chloropyridin-2-yl)vinyl)-4-((3-ethoxy-1-ethyl-1H-pyrazol-4-yl)sulfonyl)-3,4-dihydro-2H-benzo[b][1,4]oxazin-2-yl)propanoic acid] | 500 to 5000 | > 10000 |  |  |  | 
O=S(=O)(c1cccc(C(F)(F)F)c1)N1CCCc2cc(OCc3c(F)cccc3Cl)ccc21 [Example 25J, 6-((2-chloro-6-fluorobenzyl)oxy)-1-((3-(trifluoromethyl)phenyl)sulfonyl)-1,2,3,4-tetrahydroquinoline] | < 500 | 500 to 5000 |  |  |  | 
COc1cc(S(=O)(=O)N2C[C@H](CNC(C)=O)Oc3ccc(/C=C(\C)c4c(F)cccc4Cl)cc32)ccc1F [Example 109B, (S,E)-N-((6-(2-(2-chloro-6-fluorophenyl)prop-1-en-1-yl)-4-((4-fluoro-3-methoxyphenyl)-sulfonyl)-3,4-dihydro-2H-benzo[b][1,4]oxazin-2-yl)methyl)acetamide] |  |  | < 500 | < 500 | ** (a value in the range of greater than 90 to 150) | * (a value in the range of 30 to 90)
C/C(=C\c1ccc2c(c1)N(S(=O)(=O)c1cccc(C(F)(F)F)c1)CCS2)c1c(F)cccc1Cl [Example 187, (E)-6-(2-(2-Chloro-6-fluorophenyl)prop-1-en-1-yl)-4-((3-(trifluoromethyl)phenyl)sulfonyl)-3,4-dihydro-2H-benzo[b][1,4]thiazine] |  |  | < 500 | < 500 | **** (a value greater than 200) | ** (a value in the range of greater than 90 to 150)
C/C(=C\c1ccc2c(c1)C(S(=O)(=O)c1cccc(C(F)(F)F)c1)CC(CNC(=O)C(C)(C)O)O2)c1c(F)cccc1Cl (centres unmarked) [Example 182, (E)-N-((6-(2-(2-Chloro-6-fluorophenyl)prop-1-en-1-yl)-4-((3-(trifluoromethyl)phenyl)sulfonyl)chroman-2-yl)methyl)-2-hydroxy-2-methylpropanamide] |  |  | < 500 | < 500 | *** (a value in the range of greater than 150 to 200) | ** (a value in the range of greater than 90 to 150)
CC1(C)CCC(=Cc2ccc3c(c2)N(S(=O)(=O)c2cc(C(F)(F)F)cnc2OCCO)C[C@H](CCC(=O)O)O3)CC1 [Example 95W, (S)-3-(6-((4,4-dimethyl-cyclohexylidene)methyl)-4-((2-(2-hydroxyethoxy)-5-(trifluoromethyl)pyridin-3-yl)sulfonyl)-3,4-dihydro-2H-benzo[b][1,4]oxazin-2-yl)propanoic acid] | < 500 | 500 to 5000 |  |  |  | 
C[C@@H]1[C@H](O)Cc2ccc(/C=C/c3c(F)cccc3Cl)cc2N1S(=O)(=O)c1cccc(C(F)(F)F)c1 (racemic) [Example 170, (2R,3R)-7-((E)-2-Chloro-6-fluorostyryl)-2-methyl-1-((3-(trifluoromethyl)phenyl)sulfonyl)-1,2,3,4-tetrahydroquinolin-3-ol] |  |  | < 500 | 500 to 5000 | *** (a value in the range of greater than 150 to 200) | *** (a value in the range of greater than 150 to 200)
